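Exposure lasted 48 hours, with cells grown in 96-well plates and compounds tested at five concentrations. GI50 is the concentration that inhibits growth by half.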 Activity calls are given as the source filed them. Cut-off read from the data, not from the text of the source: active = GI50 up to about 1.1 µM and inactive = higher.
Experiments:
Assay in all cases: NCI tumour cell line growth inhibition, 48 h
UACC-62 = tested on: UACC-62
SNB-75 = tested on: SNB-75
HCC 2998 = tested on: HCC 2998
T47D = tested on: T47D
SF-268 = tested on: SF-268
MCF7 = tested on: MCF7
SK-MEL-2 = tested on: SK-MEL-2
SK-MEL-28 = tested on: SK-MEL-28
HOP-92 = tested on: HOP-92
SK-OV-3 = tested on: SK-OV-3
M14 = tested on: M14
OVCAR-4 = tested on: OVCAR-4
MDA-MB-231 = tested on: MDA-MB-231
NCI-H226 = tested on: NCI-H226
U-251 = tested on: U-251
NCI-H522 = tested on: NCI-H522
MDA-MB-435 = tested on: MDA-MB-435
CCRF-CEM = tested on: CCRF-CEM
HOP-62 = tested on: HOP-62
NCI-H460 = tested on: NCI-H460
RXF 393 = tested on: RXF 393
Malme-3M = tested on: Malme-3M
OVCAR-3 = tested on: OVCAR-3
SNB-19 = tested on: SNB-19
RPMI-8226 = tested on: RPMI-8226
SF-539 = tested on: SF-539
EKVX = tested on: EKVX
SF-295 = tested on: SF-295
SK-MEL-5 = tested on: SK-MEL-5
786-0 = tested on: 786-0
SW-620 = tested on: SW-620
HT-29 = tested on: HT-29
A498 = tested on: A498
HL-60 = tested on: HL-60
PC-3 = tested on: PC-3
IGROV-1 = tested on: IGROV-1
ACHN = tested on: ACHN
KM12 = tested on: KM12
LOX IMVI = tested on: LOX IMVI
HCT-116 = tested on: HCT-116
Hs-578T = tested on: Hs-578T
NCI-H23 = tested on: NCI-H23
OVCAR-8 = tested on: OVCAR-8
BT-549 = tested on: BT-549
NCI/ADR-RES = tested on: NCI/ADR-RES
SN12C = tested on: SN12C
UO-31 = tested on: UO-31
UACC-257 = tested on: UACC-257
HCT-15 = tested on: HCT-15
CAKI-1 = tested on: CAKI-1
OVCAR-5 = tested on: OVCAR-5
TK-10 = tested on: TK-10
A549 = tested on: A549
MDA-N = tested on: MDA-N
K562 = tested on: K562
MOLT-4 = tested on: MOLT-4
COLO 205 = tested on: COLO 205
DU-145 = tested on: DU-145
SR = tested on: SR

## O=C(NNC(=O)c1ccncc1)C(=O)Nc1cc(Cl)c(Cl)cc1Cl
UACC-62
  GI50: > 100 µM (inactive)
SNB-75
  GI50: > 100 µM (inactive)
HCC 2998
  GI50: 21.5 µM (inactive)
T47D
  GI50: > 100 µM (inactive)
SF-268
  GI50: > 100 µM (inactive)
MCF7
  GI50: > 100 µM (inactive)
SK-MEL-2
  GI50: > 100 µM (inactive)
SK-MEL-28
  GI50: > 100 µM (inactive)
HOP-92
  GI50: > 100 µM (inactive)
SK-OV-3
  GI50: > 100 µM (inactive)
M14
  GI50: > 100 µM (inactive)
OVCAR-4
  GI50: > 100 µM (inactive)
MDA-MB-231
  GI50: > 100 µM (inactive)
NCI-H226
  GI50: > 100 µM (inactive)
U-251
  GI50: > 100 µM (inactive)
NCI-H522
  GI50: > 100 µM (inactive)
MDA-MB-435
  GI50: > 100 µM (inactive)
CCRF-CEM
  GI50: > 10 µM (inactive)
HOP-62
  GI50: > 100 µM (inactive)
NCI-H460
  GI50: > 100 µM (inactive)
RXF 393
  GI50: > 100 µM (inactive)
Malme-3M
  GI50: > 100 µM (inactive)
OVCAR-3
  GI50: > 100 µM (inactive)
SNB-19
  GI50: > 100 µM (inactive)
RPMI-8226
  GI50: > 100 µM (inactive)
SF-539
  GI50: > 100 µM (inactive)
EKVX
  GI50: > 100 µM (inactive)
SF-295
  GI50: > 100 µM (inactive)
SK-MEL-5
  GI50: > 100 µM (inactive)
786-0
  GI50: > 100 µM (inactive)
SW-620
  GI50: > 100 µM (inactive)
HT-29
  GI50: > 100 µM (inactive)
A498
  GI50: > 100 µM (inactive)
HL-60
  GI50: > 100 µM (inactive)
PC-3
  GI50: > 100 µM (inactive)
IGROV-1
  GI50: 45.6 µM (inactive)
ACHN
  GI50: > 100 µM (inactive)
KM12
  GI50: > 100 µM (inactive)
LOX IMVI
  GI50: > 100 µM (inactive)
HCT-116
  GI50: > 100 µM (inactive)
Hs-578T
  GI50: > 100 µM (inactive)
NCI-H23
  GI50: > 100 µM (inactive)
OVCAR-8
  GI50: > 100 µM (inactive)
BT-549
  GI50: > 100 µM (inactive)
NCI/ADR-RES
  GI50: > 100 µM (inactive)
SN12C
  GI50: > 100 µM (inactive)
UO-31
  GI50: > 100 µM (inactive)
UACC-257
  GI50: > 100 µM (inactive)
HCT-15
  GI50: > 100 µM
CAKI-1
  GI50: > 100 µM (inactive)
OVCAR-5
  GI50: > 100 µM (inactive)
TK-10
  GI50: > 100 µM (inactive)
A549
  GI50: > 100 µM (inactive)
MDA-N
  GI50: > 100 µM (inactive)
K562
  GI50: > 100 µM (inactive)
MOLT-4
  GI50: > 100 µM (inactive)

## COc1ccc(C)cc1Nc1nnc(-c2ccc(N)cc2)s1
UACC-62
  GI50: > 100 µM (inactive)
SNB-75
  GI50: > 100 µM (inactive)
HCC 2998
  GI50: 44.7 µM (inactive)
T47D
  GI50: 36.1 µM (inactive)
SF-268
  GI50: > 100 µM (inactive)
COLO 205
  GI50: 80.5 µM (inactive)
DU-145
  GI50: > 100 µM (inactive)
MCF7
  GI50: 46.3 µM (inactive)
SK-MEL-2
  GI50: 63.1 µM (inactive)
SK-MEL-28
  GI50: > 100 µM (inactive)
HOP-92
  GI50: > 100 µM (inactive)
SK-OV-3
  GI50: > 100 µM (inactive)
SR
  GI50: 38.4 µM (inactive)
M14
  GI50: > 100 µM (inactive)
OVCAR-4
  GI50: > 100 µM (inactive)
NCI-H226
  GI50: 44.9 µM (inactive)
NCI-H522
  GI50: 60.3 µM (inactive)
MDA-MB-435
  GI50: 33.3 µM (inactive)
CCRF-CEM
  GI50: 41 µM (inactive)
HOP-62
  GI50: 51.8 µM (inactive)
NCI-H460
  GI50: 61.8 µM (inactive)
RXF 393
  GI50: 62.4 µM (inactive)
Malme-3M
  GI50: > 100 µM (inactive)
OVCAR-3
  GI50: 73.6 µM (inactive)
SNB-19
  GI50: > 100 µM (inactive)
RPMI-8226
  GI50: 31.5 µM (inactive)
SF-539
  GI50: > 100 µM (inactive)
EKVX
  GI50: 2.65 µM (inactive)
SF-295
  GI50: 43.4 µM (inactive)
SK-MEL-5
  GI50: 24.5 µM (inactive)
786-0
  GI50: 70.1 µM (inactive)
SW-620
  GI50: 88.1 µM (inactive)
HT-29
  GI50: 48.3 µM (inactive)
A498
  GI50: > 100 µM (inactive)
HL-60
  GI50: 32.7 µM (inactive)
PC-3
  GI50: 96.4 µM (inactive)
IGROV-1
  GI50: > 100 µM (inactive)
ACHN
  GI50: > 100 µM (inactive)
KM12
  GI50: 46.2 µM (inactive)
LOX IMVI
  GI50: 39.4 µM (inactive)
HCT-116
  GI50: 49.4 µM (inactive)
Hs-578T
  GI50: > 100 µM (inactive)
NCI-H23
  GI50: 88.1 µM (inactive)
OVCAR-8
  GI50: 87.3 µM (inactive)
BT-549
  GI50: > 100 µM (inactive)
NCI/ADR-RES
  GI50: > 100 µM (inactive)
SN12C
  GI50: > 100 µM (inactive)
UO-31
  GI50: 42 µM (inactive)
UACC-257
  GI50: 81.1 µM (inactive)
HCT-15
  GI50: 69.2 µM
CAKI-1
  GI50: 73.3 µM (inactive)
OVCAR-5
  GI50: 68.7 µM (inactive)
A549
  GI50: 7.53 µM (inactive)
MDA-N
  GI50: 30.4 µM (inactive)
K562
  GI50: 35.8 µM (inactive)
MOLT-4
  GI50: 35.3 µM (inactive)

Reference: ChEMBL document CHEMBL1201862, “PubChem BioAssay data set” (2004)
